# From patent US20210000814A1, “RIMEGEPANT FOR CGRP RELATED DISORDERS” (Biohaven Pharmaceutical Holding Company Ltd., priority 2018, published 2021)
# Test system: subjects with Acute Migraines
# Test: BHV3000-302 Phase 3 trial, acute treatment of migraine: efficacy
# Format: in vivo, human
# Conditions: Study 302; P<0.0001
# Description: Clinical Trial—BHV3000-302: Phase 3: Double-Blind, Randomized, Placebo-Controlled, Safety and Efficacy Trial of BHV-3000 (Rimegepant) for the Acute Treatment of Migraine (ClinicalTrials.gov Identifier: NCT03237845) • A phase 3 clinical study was conducted with 1503 participants, as follows. […] Pain Freedom of rimegepant (75 mg tablet) compared with placebo in the acute treatment of migraine will be measured using the number of evaluable subjects that report no pain at 2 hours post-dose. [Time Frame: Two hours post dose] • Pain will be measured on a 4 point Likert scale (0=none, 1=mild, 2=moderate, 3=severe) • 2. Freedom from the most bothersome symptom (MBS) of rimegepant (75 mg tablet) compared with placebo will be measured using the number of evaluable subjects that report the absence of their MBS at 2 hours post-dose. […] The MBS (nausea, phonophobia or photophobia) will measured using a binary scale (0=absent, 1=present). […] [Time Frame: 2 hours-24 hours post-dose] • Sustained Pain Freedom as measured by a 4 point numeric rating scale (None, Mild, Moderate, Severe) • 2. […] [Time Frame: 2 hours post-dose] • Pain Relief as measured by a 4 point numeric rating scale (None, Mild, Moderate, Severe) • 5. […] [Time Frame: 2 hours-48 hours post-dose] • Sustained Pain Freedom as measured by a 4 point numeric rating scale (None, Mild, Moderate, Severe) • 8. […]
smiles,measurement,value
"N[C@@H]1c2cccnc2[C@H](OC(=O)N2CCC(n3c(=O)[nH]c4ncccc43)CC2)CC[C@H]1c1cccc(F)c1F [Rimegepant, [(55,65,9R)-5-amino-6-(2,3-difluorophenyl)-6,7,8,9-tetrahydro-5H-cyclohepta[b]pyridin-9-yl]4-(2-oxo-3H-imidazo[4,5-b]pyridin-1-yl)piperidine-1-carboxylate]",patients achieving normal function at 2 hours (functional disability) versus placebo,greater proportion
